ChEMBL document CHEMBL1126432, “Synthesis and biological activity of carbocyclic derivatives of the potent antiviral agent 9-[2-(phosphonomethoxy)ethyl]guanine (PMEG)” (Bioorg Med Chem Lett, 1992)
≈ marks a conversion by molar mass, not a printed value.

How the values were obtained:
Assay type in all cases: functional, cell-based
[1] = system: CCRF-CEM; assay: In vitro antiviral activity expressed as IC50 against HIV (CEM cells); 11-25; details: Homo sapiens
[2] = system: Vero; assay: In vitro antiviral activity expressed as IC50 against herpes simplex virus type 2 (HSV-2) in vero cells; details: Chlorocebus sabaeus
[3] = system: CCRF-CEM; assay: In vitro antiviral activity expressed as IC50 against HIV (CEM cells); details: Homo sapiens

Row | IC50 [1] | IC50 [3] | SMILES | IC50 [2]
1 | 11 µg/mL (≈ 36.3 µM) |  | CC(Cn1cnc2c(=O)[nH]c(N)nc21)OCP(=O)(O)O (stereo not drawn) | 
2 |  | > 100 µg/mL | Nc1nc(O)c2ncn([C@H]3CCC[C@@H]3OCP(=O)(O)O)c2n1 | > 100 µg/mL
3 |  | 3 µg/mL (≈ 9.89 µM) | CC(COCP(=O)(O)O)n1cnc2c(O)nc(N)nc21 (stereo not drawn) | 
4 |  | > 100 µg/mL | Nc1nc(O)c2ncn([C@H]3CC[C@@H](OCP(=O)(O)O)C3)c2n1 | > 100 µg/mL
5 |  | 20 µg/mL (≈ 60.7 µM) | Nc1nc(O)c2ncn([C@H]3CCC[C@H]3OCP(=O)(O)O)c2n1 | > 100 µg/mL
6 |  | 0.2 µg/mL (≈ 0.692 µM) | Nc1nc2c(ncn2CCOCP(=O)(O)O)c(=O)[nH]1 [GS-438] | 0.7 µg/mL (≈ 2.42 µM)

Row | SMILES | IC50 [1] | IC50 [3] | IC50 [2]
7 | Nc1nc(O)c2ncn([C@H]3C=C[C@@H](OCP(=O)(O)O)C3)c2n1 |  | 66 µg/mL (≈ 202 µM) | > 100 µg/mL
8 | Nc1nc(O)c2ncn([C@@H]3C=C[C@H](OCP(=O)(O)O)C3)c2n1 |  | 26 µg/mL (≈ 79.5 µM) | 
